Test results reported in the supplement of paper PMC10307832.

Assays:
Assay in all cases: relative viability (nuclei count vs DMSO), 5 days (fraction); higher = more cells survive
HCC-366 = test system: HCC-366
Outline: (§1)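 Medians of duplicate plates are given as relative viability. That measure is the nuclei count in treated wells divided by the count in vehicle wells. Counts were taken on 4× images of lung cancer cell lines in 1536-well plates, 5 days after pin-tool dosing the day after seeding with one drug alone or a fixed anchor-drug dose plus five library-drug doses (not always all listed) in √10 steps.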

LOU-NH91 = test system: LOU-NH91
Outline: as §1

NCI-H1437 = test system: NCI-H1437
Outline: as §1

NCI-H1993 = test system: NCI-H1993
Outline: as §1

EKVX = test system: EKVX
Outline: as §1

NCI-H2342 = test system: NCI-H2342
Outline: as §1

SK-LU-1 = test system: SK-LU-1
Outline: as §1

NCI-H2009 = test system: NCI-H2009
Outline: as §1

NCI-H1355 = test system: NCI-H1355
Outline: as §1

NCI-H2170 = test system: NCI-H2170
Outline: as §1

NCI-H661 = test system: NCI-H661
Outline: as §1

NCI-H1395 = test system: NCI-H1395
Outline: as §1

NCI-H2087 = test system: NCI-H2087
Outline: as §1

HCC-827 = test system: HCC-827
Outline: as §1

NCI-H2405 = test system: NCI-H2405
Outline: as §1

NCI-H1734 = test system: NCI-H1734
Outline: as §1

NCI-H647 = test system: NCI-H647
Outline: as §1

HARA = test system: HARA
Outline: as §1

SK-MES-1 = test system: SK-MES-1
Outline: as §1

BEN = test system: BEN
Outline: as §1

CC(=O)O[C@@]12CO[C@@H]1C[C@H](O)[C@@]1(C)C(=O)[C@H](O)C3=C(C)[C@@H](OC(=O)[C@H](O)[C@@H](NC(=O)OC(C)(C)C)c4ccccc4)C[C@@](O)([C@@H](OC(=O)c4ccccc4)[C@H]21)C3(C)C [Docetaxel] + COc1cc2c(Oc3ccc(NC(=O)C4(C(=O)Nc5ccc(F)cc5)CC4)cc3F)ccnc2cc1OCCCN1CCOCC1 [Foretinib] (partner 0.25 µM)
relative viability (HCC-366; first compound 0.0002 µM): 0.85 | relative viability (HCC-366; first compound 0.000632 µM): 0.122 | relative viability (HCC-366; first compound 0.002 µM): 0.201 | relative viability (HCC-366; first compound 0.006325 µM): 0.0376 | relative viability (HCC-366; first compound 0.02 µM): 0.0329 | relative viability (LOU-NH91; first compound 0.0002 µM): 0.936 | relative viability (LOU-NH91; first compound 0.000632 µM): 0.864 | relative viability (LOU-NH91; first compound 0.002 µM): 0.564 | relative viability (LOU-NH91; first compound 0.006325 µM): 0.334 | relative viability (LOU-NH91; first compound 0.02 µM): 0.284 | relative viability (NCI-H1437; first compound 0.0002 µM): 1.12 | relative viability (NCI-H1437; first compound 0.000632 µM): 1.21 | relative viability (NCI-H1437; first compound 0.002 µM): 0.351 | relative viability (NCI-H1437; first compound 0.006325 µM): 0.273 | relative viability (NCI-H1437; first compound 0.02 µM): 0.188 | relative viability (NCI-H1993; first compound 0.0002 µM): 0.78 | relative viability (NCI-H1993; first compound 0.000632 µM): 0.803 | relative viability (NCI-H1993; first compound 0.002 µM): 0.659 | relative viability (NCI-H1993; first compound 0.006325 µM): 0.671 | relative viability (NCI-H1993; first compound 0.02 µM): 0.51 | relative viability (EKVX; first compound 0.0002 µM): 1.07 | relative viability (EKVX; first compound 0.000632 µM): 0.887 | relative viability (EKVX; first compound 0.002 µM): 0.411 | relative viability (EKVX; first compound 0.006325 µM): 0.234 | relative viability (EKVX; first compound 0.02 µM): 0.13 | relative viability (NCI-H2342; first compound 0.0002 µM): 1.17 | relative viability (NCI-H2342; first compound 0.000632 µM): 0.948 | relative viability (NCI-H2342; first compound 0.002 µM): 0.638 | relative viability (NCI-H2342; first compound 0.006325 µM): 0.661 | relative viability (NCI-H2342; first compound 0.02 µM): 0.502 | relative viability (SK-LU-1; first compound 0.0002 µM): 0.737 | relative viability (SK-LU-1; first compound 0.000632 µM): 0.459 | relative viability (SK-LU-1; first compound 0.002 µM): 0.451 | relative viability (SK-LU-1; first compound 0.006325 µM): 0.275 | relative viability (SK-LU-1; first compound 0.02 µM): 0.196 | relative viability (NCI-H2009; first compound 0.0002 µM): 1.18 | relative viability (NCI-H2009; first compound 0.000632 µM): 1.26 | relative viability (NCI-H2009; first compound 0.002 µM): 0.952 | relative viability (NCI-H2009; first compound 0.006325 µM): 0.467 | relative viability (NCI-H2009; first compound 0.02 µM): 0.304 | relative viability (NCI-H1355; first compound 0.0002 µM): 0.958 | relative viability (NCI-H1355; first compound 0.000632 µM): 0.886 | relative viability (NCI-H1355; first compound 0.002 µM): 0.625 | relative viability (NCI-H1355; first compound 0.006325 µM): 0.276 | relative viability (NCI-H1355; first compound 0.02 µM): 0.243 | relative viability (NCI-H2170; first compound 0.0002 µM): 0.995 | relative viability (NCI-H2170; first compound 0.000632 µM): 0.962 | relative viability (NCI-H2170; first compound 0.002 µM): 0.754 | relative viability (NCI-H2170; first compound 0.006325 µM): 0.232 | relative viability (NCI-H2170; first compound 0.02 µM): 0.203 | relative viability (NCI-H661; first compound 0.0002 µM): 0.989 | relative viability (NCI-H661; first compound 0.000632 µM): 1.02 | relative viability (NCI-H661; first compound 0.002 µM): 0.982 | relative viability (NCI-H661; first compound 0.006325 µM): 0.509 | relative viability (NCI-H661; first compound 0.02 µM): 0.496 | relative viability (NCI-H1395; first compound 0.0002 µM): 0.883 | relative viability (NCI-H1395; first compound 0.000632 µM): 0.874 | relative viability (NCI-H1395; first compound 0.002 µM): 0.904 | relative viability (NCI-H1395; first compound 0.006325 µM): 0.456 | relative viability (NCI-H1395; first compound 0.02 µM): 0.342 | relative viability (NCI-H2087; first compound 0.0002 µM): 0.955 | relative viability (NCI-H2087; first compound 0.000632 µM): 0.477 | relative viability (NCI-H2087; first compound 0.002 µM): 0.249 | relative viability (NCI-H2087; first compound 0.006325 µM): 0.115 | relative viability (NCI-H2087; first compound 0.02 µM): 0.105 | relative viability (HCC-827; first compound 0.0002 µM): 1.03 | relative viability (HCC-827; first compound 0.000632 µM): 1 | relative viability (HCC-827; first compound 0.002 µM): 0.771 | relative viability (HCC-827; first compound 0.006325 µM): 0.362 | relative viability (HCC-827; first compound 0.02 µM): 0.291 | relative viability (NCI-H2405; first compound 0.0002 µM): 1.05 | relative viability (NCI-H2405; first compound 0.000632 µM): 1 | relative viability (NCI-H2405; first compound 0.002 µM): 0.6 | relative viability (NCI-H2405; first compound 0.006325 µM): 0.402 | relative viability (NCI-H2405; first compound 0.02 µM): 0.306 | relative viability (NCI-H1734; first compound 0.0002 µM): 0.776 | relative viability (NCI-H1734; first compound 0.000632 µM): 0.743 | relative viability (NCI-H1734; first compound 0.002 µM): 0.404 | relative viability (NCI-H1734; first compound 0.006325 µM): 0.336 | relative viability (NCI-H1734; first compound 0.02 µM): 0.227 | relative viability (NCI-H647; first compound 0.0002 µM): 1.25 | relative viability (NCI-H647; first compound 0.000632 µM): 1.06 | relative viability (NCI-H647; first compound 0.002 µM): 0.179 | relative viability (NCI-H647; first compound 0.006325 µM): 0.182 | relative viability (NCI-H647; first compound 0.02 µM): 0.111 | relative viability (HARA; first compound 0.0002 µM): 0.709 | relative viability (HARA; first compound 0.000632 µM): 0.128 | relative viability (HARA; first compound 0.002 µM): 0.146 | relative viability (HARA; first compound 0.006325 µM): 0.0748 | relative viability (HARA; first compound 0.02 µM): 0.0559 | relative viability (SK-MES-1; first compound 0.0002 µM): 0.84 | relative viability (SK-MES-1; first compound 0.000632 µM): 0.923 | relative viability (SK-MES-1; first compound 0.002 µM): 0.508 | relative viability (SK-MES-1; first compound 0.006325 µM): 0.368 | relative viability (SK-MES-1; first compound 0.02 µM): 0.168 | relative viability (BEN; first compound 0.0002 µM): 0.625 | relative viability (BEN; first compound 0.000632 µM): 0.926 | relative viability (BEN; first compound 0.002 µM): 0.606 | relative viability (BEN; first compound 0.006325 µM): 0.285 | relative viability (BEN; first compound 0.02 µM): 0.197
